Tested on: patients with dry eye symptoms
Assay: Clinical use of lipid composition applied to the eyelid margin for dry eye
Format: in vivo, human
Conditions: Patient No. 4; 1 percent non-preserved, two weeks
From the text: These patients were afflicted with meibomian gland dysfunction, various forms of dry eye syndrome, abnormal lids due to chemical burns, Stevens-Johnson syndrome, ocular pemphigoid, etc.

C[C@H]1C[C@@H]2[C@H]([C@@H](O)C[C@@]3(C)[C@H]2CC[C@]3(O)C(=O)CO)[C@@]2(C)C=CC(=O)C=C12 [methyl prednisolone]
improvement of symptoms: 50%
